{"source": "patent US20210030761A1", "about": "“TREATMENT AND PREVENTION OF ALPHA HERPES VIRUS INFECTION” (THE REGENTS OF THE UNIVERSITY OF COLORADO, a body corporate, priority 2018, published 2021)", "key": {"[1]": {"system": "uninfected HA-sp", "details": "tested at 1-100 μM, data not shown", "protocol": "(§1) Cell Culture and Infection: Primary human spinal astrocytes (HA-sp; Sciencell, Carlsbad, Calif.) were seeded at 5,000 cells/cm' in a basal astrocyte medium containing 2% fetal bovine serum (FBS), 1% astrocyte growth supplement, and 1% 100× penicillin-streptomycin (Sciencell). After 24 hours, medium was changed to basal astrocyte medium containing 0.1% FBS and 1% 100× penicillin-streptomycin that was replenished every 72 hours for 7 days to establish quiescence. On day 7, spinal astrocytes were co-cultivated with VZV-infected spinal astrocytes (40 pfu/mL) or mock-infected spinal astrocytes. […] Light microscopy images to observe a cytopathic effect were obtained at 12, 24, 48 and 72 HPI followed by DNA extraction and PCR quantification of VZV DNA as described below. Substance P ELISA: Substance P was quantitated from mock- and VZV-infected HA-sp using a colorimetric competitive enzyme immunoassay kit according to the manufacturer's instructions (Enzo, Farmingdale, N.Y.). The sensitivity range was 9.76-10,000 pg/mL, as determined by controls run on the same assay as samples. Immunofluorescence Assay: HA-sp were propagated and treated as described above in an ibidi 24-well μ-Plate (ibidi, Martinsried, Germany). […] GFAP and NK-1R were detected using a 1:500 dilution of chicken anti-GFAP (Abcam) and a 1:100 dilution of rabbit anti-NK-1R (Novus Biologicals LLC, Littleton, Colo.), respectively. […]"}, "[2]": {"system": "VZV-infected primary human spinal astrocytes (HA-sp)", "assay": "Immunocytochemistry of cellular processes and NK-1R localization in VZV-infected HA-sp", "format": "cell-based", "details": "3 DPI; 10 μM aprepitant; versus vehicle", "protocol": "as §1"}, "[3]": {"system": "VZV", "assay": "Total VZV DNA in adult primary human perineurial cells (HPNCs)", "format": "cell-based, varicella zoster virus", "details": "72 HPI", "description": "At 12, 24, 48, and 72 HPI, cells were visualized by light microscopy in the untreated and treated cultures and harvested for DNA."}, "[4]": {"system": "quiescent uninfected spinal astrocytes", "assay": "Substance P treatment of uninfected spinal astrocytes: NK-1R distribution by immunofluorescence and process formation by CellTracker Deep Red", "format": "cell-based, human", "details": "10^−6 M substance P for 60 minutes", "protocol": "as §1"}}}
{"compound": "C[C@@H](O[C@H]1OCCN(Cc2n[nH]c(=O)[nH]2)[C@H]1c1ccc(F)cc1)c1cc(C(F)(F)F)cc(C(F)(F)F)c1", "note": "[aprepitant]", "values": [{"measurement": "optimal concentration to avoid cell death", "setting": "[1]", "result": 10, "unit": "µM"}, {"measurement": "lamellipodia formation in VZV-infected cells", "setting": "[2]", "result": "reduction in lamellipodia formation"}]}
{"compound": "C[C@@H](OC[C@@]1(c2ccccc2)CC[C@]2(CCC(=O)N2)CN1)c1cc(C(F)(F)F)cc(C(F)(F)F)c1", "note": "[rolapitant]", "values": [{"measurement": "total VZV DNA", "setting": "[3]; treated at 24 HPI", "result": "significantly reduced total VZV DNA"}, {"measurement": "total VZV DNA", "setting": "[3]; treated at time of infection", "result": "significantly reduced total VZV DNA"}]}
{"compound": "substance P", "values": [{"measurement": "NK-1R localization", "setting": "[4]", "result": "detected predominantly in cytoplasm"}, {"measurement": "lamellipodia formation", "setting": "[4]; CellTracker Deep Red", "result": "lack of lamellipodia"}]}
